ChEMBL document CHEMBL1155831, “The structural basis for peptidomimetic inhibition of eukaryotic ribonucleotide reductase: a conformationally flexible pharmacophore” (J Med Chem, 2008)

Assay: Inhibition of Saccharomyces cerevisiae ribonucleotide reductase

Substance | IC50
H-NFDDDF-OH | 30 µM
H-FTFNEDF-OH | 44 µM
